Test results published in patent US7223777B2, “Compounds for the management of aging-related and diabetic vascular complications, process for their preparation, therapeutic and cosmetic uses thereof” (Torrent Pharmaceuticals Ltd., priority 2001, dated 2007).

Tests used:
AGE-BSA = target: T1, AGE-BSA (Bos taurus, UniProt P02769); assay: In-vitro screening for AGE-breaking activity (AGE-BSA incubated with compound; ELISA / gel permeation chromatography); type: biochemical, bovine; conditions: 37° C., 24 hours
T1 construct: Bovine serum albumin (fraction V) (BSA); from tissue; host or cells: bovine serum (fraction V); own knowledge: fraction V is the albumin fraction of plasma/serum
Experimental: Fluorescence was used as the criteria to monitor the increased AGE formation.
160 mg/ml of protein, bovine serum albumin, BSA and 1.6M glucose sugar were dissolved in phosphate buffered saline, PBS. Sodium azide was added at 0.02% concentration as a preservative. The solution was filtered asceptically through a […] filter and kept for aging at 37° C. for 16 weeks. After 16 weeks the solution was dialyzed against PBS, aliquoted and stored at −20° C.
To determine the AGE breaking activity, 10 μg/ml of the 16 weeks AGE-BSA was incubated with different concentrations of the test compounds at 37° C. for 24 hours and AGE breaking activity of the test compounds by ELISA was determined.
• 1. Different concentrations of 16 weeks AGE-BSA were coated on a microtiter plate as standard. Each concentration is coated in triplicates. • 2. The test samples were coated on microtiter plate at a concentration of 5 ng. to 20 ng per well in triplicates. • 3. The plate was incubated at 37° C. for one hour. • 4. After incubation the plate was washed with PBST (PBS with 0.05% Tween 20). • 5. Blocking with 5% skimmed milk in PBS at 37° C. for one hour was done. • 6. The plate was washed with PBST. • 7. Primary antibody against AGE-BSA was added and the plate is incubated at 37° C. for one hour. • 8. The plate was washed with PBST. • 9. Secondary antibody anti rabbit HRPO (Horse-Radish Per Oxidase) conjugate was added and the plate is incubated at 37° C. for one hour. • 10. The plate was washed with PBST. • 11. Colour development with OPD (orthophenylenediamine dihydrochloride) and hydrogen peroxide was done. • 12. OD (optical density) at (450 nm reading –620 nm reading) was measured after incubation at 37° C. for 15 minutes with Microplate ELISA Reader.
The breaker activity of the compounds were determined by the following formula:
[formula] OD450-620Control=Absorbance of 20 ng AGE-BSA after incubation at 37° C. for 24 hours without test compound. OD450-620Test=Absorbance of 20 ng AGE-BSA after incubation at 37° C. for 24 hours with required concentration of test compound.
Gel Permeation Chromatography based method was used to determine AGE breaking activities of the compounds.
Separation by Gel Permeation Chromatography (GPC) depends on differences in the size, more precisely the hydrodynamic volume, of the proteins in a sample. […] The pores of a column particle are differentially accessible to smaller particles, depending on their size. This volume of the column is called (V1). The total accessible volume (Vt) is the sum of the volume outside the particles (V0) and the volume accessible inside the particles (V1): Vt=V0+Vi Therefore, in a typical Gel Permeation Chromatography (GPC) run, high molecular weight molecules elute at a lower retention time whereas lower molecular weight molecules are retained for longer time. For the purpose of quantification, the area under the curve for the respective molecule is recorded. The same principle has been applied in the in vitro screening of the molecules of instant invention. Highly cross-linked Advanced Glycosylated Endproducts (AGE) were prepared in vitro by incubating Bovine Serum Albumin (BSA) with glucose for a period of 16 weeks. […] The reduction in the area of AGE-BSA incubated in the presence of AGE breaker as compared to that of control AGE BSA (incubated in absence of AGE breaker) gives an estimate of the AGE breaker activity of the drug. In order to check the non-specific activity of the molecule, a similar experiment was repeated with BSA as well. Methodology:
A known concentration of 16-week AGE-BSA was incubated with and without a predetermined concentration of the drug at 37° C. for 24 hours in clean transparent glass test tubes. The solution without drug served as the control and the solution containing the drug was treated as the test sample.
Gel permeation chromatography was performed on equal volumes of control AGE-BSA preparation and solution of AGE-BSA treated with drug. […]

[1] = test system: Maillard reaction in-vitro (BSA, ribose); assay: Test for AGE inhibiting activity (Maillard reaction in-vitro, BSA + ribose, fluorescence); type: biochemical, bovine; conditions: 37° C., 7 days
Experimental: The following method was used to determine the inhibitory effect of the test compounds on Maillard reaction in-vitro. This method is adopted from U.S. Pat. No. 5,514,676 and European Patent No. 0 339 496 A2.
A solution of Bovine Serum Albumin (BSA), ribose and test compound was prepared in Phosphate Buffer Saline (PBS, pH 7.4) so as to have final concentration of BSA and ribose at 10 mg/ml and 500 mM respectively. Addition of compound was done in aseptic conditions. Sodium azide (0.02%) was also added in this solution in order to prevent microbial growth. A separate tube containing BSA, ribose and sodium azide in the same concentration and buffer as above, but without any test compound, was also incubated as positive control. After incubation at 37° C. for 7 days, 40 micro liter sample from each tube was removed and diluted with PBS to have final concentration of BSA at 1 mg/ml. The fluorescence of all the samples was measured at Excitation Maximum of […] and the Emission Maximum of […] using f-MAX Fluorimeter (Molecular Device, USA). In order to study the effect of test compound on fluorescence, freshly prepared compound solution was mixed with previously incubated positive control (i.e. BSA+ribose), so as to achieve same concentration of all the components as that of test samples.
The percent inhibition of test compound was measured as follows:
[formula] Where F3=Fluorescence of BSA+ribose+compound, F4 is fluorescence of incubated (BSA+ribose)+freshly added test compound.

[2] = Free radical scavenging activity on ABTS radical cation; type: biochemical
Experimental: This method measures the relative ability of free radical scavenging substances to scavenge the ABTS.^+ i.e. 2,2-Azino-bis-(3-ethyl benzo thiazoline-6-sulfonate) radical cation as compared to a standard amount of standard or free radical scavengers antioxidants. Incubation of ABTS with Peroxidase (metmyoglobin) and hydrogen peroxide results in the production of radical cation ABTS.^+. This species is blue-green in colour and can be detected at 730 nm. Antioxidants or free radical scavengers in the added sample that causes suppression of the color to a degree that is proportional to their concentration.
Preparation of Buffer Solutions: • a. Phosphate Citrate Buffer (pH 5.0): 48.5 ml of 0.1M citric acid with sufficient 0.2M disodium hydrogen phosphate to produce 100 ml. • b. Phosphate Buffer Saline (PBS): Dissolve 40.0 g of NaCl, 1.0 g of KCl, 1.0 g of KH2PO4 and 3.05 g of Na2HPO4 in 1 liter milli-Q water. Dilute 200 ml of above solution to 1 liter with milli-Q water (pH 7.4–7.6).
Preparation of ABTS Stock Solution (2 mM): • 1 tablet (10 mg) was dissolved in phosphate citrate buffer (pH 5.0) to give a 2 mM solution.
Preparation of Horse Radish Peroxidase Working Solution: • 0.1 mg was dissolved in 10 ml of phosphate buffer saline, 1 ml of this solution was diluted to 100 ml with PBS.
Preparation of Hydrogen Peroxide (1.08 mM) Solution: • 12 μl of Hydrogen Peroxide (30% w/v) was diluted to 100 ml with PBS.
Preparation of Drug Solutions: • 0.1 mM of stock solution of the drug was prepared which was serially diluted in PBS to get 0.05 mM, 0.025 mM and 0.0125 mM solutions.
Preparation of ABTS Radical Stock Solution: • To 2 ml of ABTS stock solution, 1 ml of horseradish Peroxidase working solution was added. • As soon as 2 ml of Hydrogen peroxide solution was added to the above solution, blue-green colour of the ABTS radicals appeared. This solution was incubated at 30° C. for 30 min in order to ensure the completion reaction. Make up the volume to 10 ml with PBS.
Preparation of Control Solution: • 900 μl of ABTS radical stock solution were added to an eppendorf tube. To it were added 100 μl of PBS solution.
Preparation of Test Solution: • 900 μl of ABTS radical stock solutions were added to different eppendorf tubes. To it were added 100 μl of various concentrations of drug solution.
Measurement of Absorbance (O.D): • The absorbance of control and test samples was recorded immediately at 730 nm taking PBS as blank.
Calculation: • The percent antioxidant activity was calculated according to the formula: % Antioxidant activity=100−[O.D of test sample/O.D of control×100]

T1 sequence (P02769 25-607): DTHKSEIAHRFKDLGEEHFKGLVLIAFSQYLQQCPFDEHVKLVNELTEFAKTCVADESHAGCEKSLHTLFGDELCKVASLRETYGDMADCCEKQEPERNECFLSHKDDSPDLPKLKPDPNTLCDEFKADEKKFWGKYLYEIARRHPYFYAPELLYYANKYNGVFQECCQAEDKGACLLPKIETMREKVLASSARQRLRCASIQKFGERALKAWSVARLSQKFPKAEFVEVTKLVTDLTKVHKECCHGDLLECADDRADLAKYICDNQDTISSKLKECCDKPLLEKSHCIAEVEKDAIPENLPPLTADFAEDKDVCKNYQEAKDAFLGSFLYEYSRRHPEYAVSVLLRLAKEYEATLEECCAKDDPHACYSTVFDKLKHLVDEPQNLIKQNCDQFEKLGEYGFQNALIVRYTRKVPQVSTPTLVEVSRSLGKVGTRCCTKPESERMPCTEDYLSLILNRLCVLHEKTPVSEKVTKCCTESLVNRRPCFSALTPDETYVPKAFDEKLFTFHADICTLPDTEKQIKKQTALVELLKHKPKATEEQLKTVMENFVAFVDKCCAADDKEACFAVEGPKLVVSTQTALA

Compound | % Breakage (AGE-BSA; 10 mM compound) | % Inhibition (Day 7) ([1]; 5 mM compound) | Relative Free Radical Scavenging Activity (%) on ABTS ([2]; 12.5 μM) | Relative Free Radical Scavenging Activity (%) on ABTS ([2]; 25.0 μM) | Relative Free Radical Scavenging Activity (%) on ABTS ([2]; 50.0 μM) | Relative Free Radical Scavenging Activity (%) on ABTS ([2]; 100.0 μM) | % Breakage (AGE-BSA; 5 mM compound) | % Inhibition (Day 7) ([1]; 2.5 mM compound) | % Inhibition (Day 7) ([1]; 10 mM compound) | % Inhibition (Day 7) ([1]; 1.25 mM compound)
O=C(C[n+]1cccc(-c2cc(COc3ccccc3)nn2-c2ccccc2)c1)c1ccccc1.[Cl-] [Compound 34, 1-(2-Phenyl-2-oxoethyl)-3-[(1-phenyl-3-phenoxymethyl)pyrazol-5-yl]pyridinium chloride] | 100.0% | 60% | 13.2% | 19.08% | 26.39% | 29.40% |  |  |  | 
Cc1cc(C)n(Cc2cc(-c3ccc[n+](CC(=O)c4ccc(C)s4)c3)[nH]n2)n1.[Cl-] [Compound 18, 1-(2-(5-Methyl-2-thienyl)-2-oxoethyl)-3-[(3,-(3,5-dimethylpyrazol-1-yl)methyl)pyrazol-5-yl]pyridinium chloride] |  | 79% | 28.65% | 53.8% | 84.41% | 95.32% | 52.97% |  |  | 
O=C(C[n+]1cccc(-c2cc(CCC3CCCCC3)n[nH]2)c1)c1ccccc1.[Cl-] [Compound 22] | 100.00% |  | 22.52% | 29.52% | 30.31% | 31.40% |  | 51% |  | 
1-(2-Thien-2′-yl-2-oxoethyl)-3-[(1-cyclohexyl-3-(3,5-dimethylpyrazol-1-yl)methyl)pyrazol-5-yl]pyridinium chloride [Compound 35] | 66.66% |  | 28.27% | 39.78% | 58.34% | 74.36% |  |  | 73.8% | 
O=C(C[n+]1cccc(-c2cc(Cc3ccccc3)nn2-c2ccccc2)c1)c1cccs1.[Cl-] [Compound 11, 1-(2-Thien-2′-yl-2-oxoethyl)-3-[(1-phenyl-3-phenylmethyl)pyrazol-5-yl]-pyridinium chloride] |  |  | 26.78% | 45.74% | 70.61% | 86.46% | 76.84% |  |  | 32.9%
Cc1cc(C)n(Cc2cc(-c3ccc[n+](CC(=O)c4ccccc4)c3)n(-c3ccccc3)n2)n1.[Br-] [Compound 26] | 42.37% | 61.45% | 21.18% | 34.22% | 41.66% | 75.27% |  |  |  | 
Cc1cc(C)n(Cc2cc(-c3ccc[n+](CC(=O)c4ccccc4)c3)[nH]n2)n1.[Cl-] [Compound 17, 1-(2-Phenyl-2-oxoethyl)-3-[(3-(3,5-dimethylpyrazol-1-yl)methyl)pyrazol-5-yl]-pyridinium chloride] | 52.27% |  | 28.34% | 54.43% | 83.56% | 94.81% |  | 57.43% |  | 
Cc1cc(C)n(Cc2cc(-c3ccc[n+](CC(=O)c4cccs4)c3)n(-c3ccccc3)n2)n1.[Cl-] [Compound 13] | 81.05% |  | 23.58% | 41.78% | 64.01% | 82.54% |  |  | 57% | 
